Literature values as cited in patent publication US20170202917A1, “PHARMACEUTICAL COMPOSITION FOR PREVENTING OR TREATING SKIN RASH” (DAEWOONG PHARMACEUTICAL CO., LTD., priority 2014, published 2017).

Assays:
skin rashes = conditions: prophylactic treatment

| time to development of rash after starting treatment (rash above the waist) | Compound | overall incidence of erlotinib-related skin effects (ERSEs) (NSCLC and PC clinical trials) | incidence of grade 3-4 ERSEs (NSCLC and PC clinical trials, of the patients) | improvement in skin rashes compared with placebo (skin rashes) |
| --- | --- | --- | --- | --- |
| 7 to 10 days | C#Cc1cccc(Nc2ncnc3cc(OCCOC)c(OCCOC)cc23)c1 [erlotinib] | 75% | about 10% | – |
| – | CN(C)[C@@H]1C(O)=C(C(N)=O)C(=O)[C@@]2(O)C(O)=C3C(=O)c4c(O)cccc4[C@@](C)(O)[C@H]3C[C@@H]12 [tetracycline] | – | – | 30% |
